Legend:
DP = biological target: T1, DP (Homo sapiens, UniProt Q13258); assay: DP activity study; type: cell-based
T1 sequence (Q13258 1-359): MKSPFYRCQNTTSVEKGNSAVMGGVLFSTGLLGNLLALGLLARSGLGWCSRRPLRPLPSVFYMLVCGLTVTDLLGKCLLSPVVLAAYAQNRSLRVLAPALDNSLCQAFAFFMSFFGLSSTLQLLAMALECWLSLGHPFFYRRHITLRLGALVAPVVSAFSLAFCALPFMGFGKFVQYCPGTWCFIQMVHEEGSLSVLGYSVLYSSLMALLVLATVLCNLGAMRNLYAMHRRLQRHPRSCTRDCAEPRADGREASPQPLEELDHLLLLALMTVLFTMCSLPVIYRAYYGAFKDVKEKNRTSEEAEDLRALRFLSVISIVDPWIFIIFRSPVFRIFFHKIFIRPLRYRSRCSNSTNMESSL
Procedure: (§1) Data from running binding and activity studies on the compounds of the invention were carried out as described in U.S. Pat. No. 7,427,685, the contents of which are incorporated herein by reference.

EP4 [1] = biological target: T2, EP4 (Homo sapiens, UniProt P35408); assay: EP4 binding study
T2 sequence (P35408 whole entry): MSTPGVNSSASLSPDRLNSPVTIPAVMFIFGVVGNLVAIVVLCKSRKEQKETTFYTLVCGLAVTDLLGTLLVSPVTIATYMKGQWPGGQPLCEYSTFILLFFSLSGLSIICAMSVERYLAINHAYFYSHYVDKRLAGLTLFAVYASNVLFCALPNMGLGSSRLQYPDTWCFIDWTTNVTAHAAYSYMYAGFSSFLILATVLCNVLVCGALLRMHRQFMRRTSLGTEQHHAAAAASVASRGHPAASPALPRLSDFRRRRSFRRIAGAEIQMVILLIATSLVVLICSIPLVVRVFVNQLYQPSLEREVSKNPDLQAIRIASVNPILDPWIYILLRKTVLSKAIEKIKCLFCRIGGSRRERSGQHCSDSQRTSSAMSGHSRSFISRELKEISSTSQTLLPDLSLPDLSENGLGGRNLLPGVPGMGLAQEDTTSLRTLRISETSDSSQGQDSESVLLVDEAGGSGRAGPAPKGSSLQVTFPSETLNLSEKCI
Procedure: as §1

EP4 [2] = biological target: T2, EP4; assay: EP4 Ca2+ signal activity study; type: cell-based
Procedure: as §1

EP2 [3] = biological target: T3, EP2 (Homo sapiens, UniProt P43116); assay: EP2 cAMP activity study; type: cell-based
T3 sequence (P43116 whole entry): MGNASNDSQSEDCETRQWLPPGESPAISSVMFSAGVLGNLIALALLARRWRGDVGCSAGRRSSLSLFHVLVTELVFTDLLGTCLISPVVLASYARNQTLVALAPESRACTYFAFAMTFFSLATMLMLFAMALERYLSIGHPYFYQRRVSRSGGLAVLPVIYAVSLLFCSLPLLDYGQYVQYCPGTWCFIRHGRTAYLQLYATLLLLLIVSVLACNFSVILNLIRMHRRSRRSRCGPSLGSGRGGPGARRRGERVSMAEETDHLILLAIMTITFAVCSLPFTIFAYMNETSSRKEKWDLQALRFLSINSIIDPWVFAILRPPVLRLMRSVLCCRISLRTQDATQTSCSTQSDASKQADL
Procedure: as §1

EP2 [4] = biological target: T3, EP2; assay: EP2 binding study
Procedure: as §1

EP2 [5] = biological target: T3, EP2; assay: EP2 Ca2+ signal activity study; type: cell-based
Procedure: as §1

EP1 = biological target: T4, EP1 (Homo sapiens, UniProt P34995); assay: EP1 activity study; type: cell-based
T4 sequence (P34995 1-402): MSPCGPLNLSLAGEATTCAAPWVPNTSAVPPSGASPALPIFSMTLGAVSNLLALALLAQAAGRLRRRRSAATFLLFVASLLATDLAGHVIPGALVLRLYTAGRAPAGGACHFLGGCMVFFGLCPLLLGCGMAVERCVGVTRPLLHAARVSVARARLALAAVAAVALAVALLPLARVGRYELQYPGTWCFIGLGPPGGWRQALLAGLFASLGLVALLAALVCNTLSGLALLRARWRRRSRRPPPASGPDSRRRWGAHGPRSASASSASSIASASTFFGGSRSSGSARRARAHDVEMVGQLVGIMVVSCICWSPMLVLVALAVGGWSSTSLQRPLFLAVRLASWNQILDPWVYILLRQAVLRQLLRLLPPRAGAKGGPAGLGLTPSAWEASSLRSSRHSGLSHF
Procedure: as §1

TP = biological target: T5, TP (Homo sapiens, UniProt P21731); assay: TP activity study; type: cell-based
T5 sequence (P21731 1-343): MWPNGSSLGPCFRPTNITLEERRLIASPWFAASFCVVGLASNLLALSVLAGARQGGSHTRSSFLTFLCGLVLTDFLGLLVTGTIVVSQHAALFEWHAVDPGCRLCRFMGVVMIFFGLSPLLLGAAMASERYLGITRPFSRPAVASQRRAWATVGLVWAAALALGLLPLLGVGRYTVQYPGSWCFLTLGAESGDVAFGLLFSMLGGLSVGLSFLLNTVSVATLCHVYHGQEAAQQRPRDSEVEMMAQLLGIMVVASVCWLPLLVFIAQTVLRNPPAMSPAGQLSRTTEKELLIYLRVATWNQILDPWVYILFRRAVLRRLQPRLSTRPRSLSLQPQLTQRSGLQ
Procedure: as §1

EP3 = biological target: T6, EP3 (Homo sapiens, UniProt P43115); assay: EP3 activity study; type: cell-based
T6 sequence (P43115 1-390): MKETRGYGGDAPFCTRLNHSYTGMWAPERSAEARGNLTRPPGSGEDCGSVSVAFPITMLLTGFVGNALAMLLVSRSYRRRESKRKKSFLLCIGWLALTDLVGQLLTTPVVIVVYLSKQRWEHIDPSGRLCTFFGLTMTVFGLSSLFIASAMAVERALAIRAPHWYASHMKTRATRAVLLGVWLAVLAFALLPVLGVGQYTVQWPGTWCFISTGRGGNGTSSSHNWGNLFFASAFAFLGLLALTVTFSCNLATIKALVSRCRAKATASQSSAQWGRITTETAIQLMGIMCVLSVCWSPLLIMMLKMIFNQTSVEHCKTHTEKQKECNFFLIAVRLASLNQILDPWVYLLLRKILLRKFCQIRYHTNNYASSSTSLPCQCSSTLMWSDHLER
Procedure: as §1

Row | SMILES | EC50 (DP) | EC50 (EP4 [1]) | EC50 (EP4 [2]) | EC50 (EP2 [3]) | EC50 (EP2 [4]) | EC50 (EP2 [5]) | EC50 (EP1) | EC50 (TP) | EC50 (EP3)
1 | C[C@@H](O)CCC[C@H](O)/C=C/[C@@H]1[C@@H](CCCc2ccc(C(=O)O)s2)[C@H](Cl)C[C@H]1O | 6790 nM | – | – | – | – | – | – | – | –
2 | CCCCC(O)[C@H](O)/C=C/[C@@H]1[C@@H](CCCc2ccc(C(=O)O)s2)[C@H](Cl)C[C@H]1O (stereo partly shown) | 886 nM | 490 nM | 45 nM | 2.3 nM | 148 nM | 9 nM | – | – | –
3 | O=C(O)c1ccc(CCC[C@@H]2[C@@H](/C=C/[C@@H](O)CCCCCO)[C@H](O)C[C@H]2Cl)s1 | 3350 nM | 1130 nM | 68 nM | 0.4 nM | 147 nM | 4 nM | 101 nM | 7570 nM | 129 nM
4 | C[C@@H](O)CCCC[C@H](O)/C=C/[C@@H]1[C@@H](CCCc2ccc(C(=O)O)s2)[C@H](Cl)C[C@H]1O [5-(3-((1R,2R,3R,5R)-5-Chloro-2-((3S 8R,E)-3,8-dihydroxynon-1-en-1-yl)-3-hydroxycyclopentyl)propyl)thiophene-2-carboxylic acid] | 4520 nM | > 10000 nM | 455 nM | 1.4 nM | 363 nM | 29 nM | 207 nM | – | 222 nM
5 | C[C@@H](O)CCCC[C@@H](O)/C=C/[C@@H]1[C@@H](CCCc2ccc(C(=O)O)s2)[C@H](Cl)C[C@H]1O [5-(3-((1R,2R,3R,5R)-5-chloro-2-((3R,8R,E)-3,8-dihydroxynon-1-en-1-yl)-3-hydroxycyclopentyl)propyl)thiophene-2-carboxylic acid] | – | 3410 nM | > 10000 nM | 14 nM | 365 nM | 328 nM | 4220 nM | – | 7140 nM
6 | CCCC(O)CC(O)/C=C/[C@@H]1[C@@H](CCCc2ccc(C(=O)O)s2)[C@H](Cl)C[C@H]1O (stereo partly shown) | 2260 nM | 434 nM | 23 nM | 3 nM | 716 nM | 27 nM | 1240 nM | 4800 nM | 690 nM
